Assay [1] concerns P. falciparum Dd2-B2 lines selected under drug pressure. As to the kind of experiment: 72-hour flow cytometry EC50 assay, lines selected under drug pressure. In kind it is cell-based, Plasmodium falciparum. The settings on record: for EC50: Plasmodium falciparum. As to the method:
Three examples of an additional compound series developed independently [NPD-2958, NPD-3518 ([31]), and NPD-3738; fig.
(§1) Stocks of SAL-0010003 (5-benzyl), SAL-0010355 (5-aryl), and SAL-0010419 (2-alkyl) were made at 10 and 1 mM in DMSO. Aliquots in use were stored at −20°C, and long-term storage was at −80°C. All in vitro studies were done such that the final DMSO concentration was <0.5%. P. falciparum ABS parasites were cultured at 3% hematocrit in human O+ RBCs in RPMI 1640 medium, supplemented with 25 mM Hepes, 50 mg L-hypoxanthine, 2 mM L-glutamine, 0.225% sodium bicarbonate, 0.5% (w/v) AlbuMAX II (Invitrogen) and gentamycin (10 μg/ml), in modular incubator chambers (Billups-Rothenberg) at 5% O2, 5% CO2, and 90% N2 at 37°C. Dd2-B2 (obtained from T. Wellems, National Institute of Allergy and Infectious Diseases, National Institutes of Health) is a genetically homogenous line that was cloned from Dd2 by limiting dilution. To define the EC50 and EC90 values of ABS parasites, Dd2-B2 ring-stage cultures at 0.2% parasitemia and 1% hematocrit were exposed for 72 hours to a range of 10 drug concentrations that were twofold serially diluted in duplicates along with drug-free controls. Parasite survival was assessed by flow cytometry on an iQue flow cytometer (Sartorius) using SYBR Green and MitoTracker Deep Red FM (Life Technologies) as nuclear stain and vital dyes, respectively. After determination of the EC50 and EC90 values for the three compounds with the P. falciparum Dd2-B2 clone, one single-step selection was set up using 2 × 10^5 parasites in each well of a 96-well plate at a starting concentration of 3× EC90. Parasites were cleared from the culture rapidly, and cultures were screened three times weekly by flow cytometry and counted as positive for recrudescence when the overall parasitemia reached 0.3% and the parasites were visible on a blood smear. DNA was extracted from recrudescent lines using a QIAGEN QIAamp Blood Mini Kit, and libraries were prepared with the Illumina DNA Prep kit for whole-genome sequencing on the Illumina MiSeq using a V3 2 × 300–base pair flow cell.

Assay [2] deals with cGMP-PDE activity in gametocyte lysates (PDEα, PDEδ). In words: cGMP hydrolysis SPA in stage IV/V gametocyte membrane lysates. It counts as biochemical, Plasmodium falciparum. The note with it: gametocyte lysate; geometric mean ×/÷ geometric SD. The procedure:
cGMP signaling is known to play an essential role in gametogenesis in Plasmodium ([19], [20], [28]). We therefore tested the effects of all newly synthesized analogs for their ability to inhibit cGMP hydrolysis in crude gametocyte membrane preparations. […] S5A. These findings were also consistent with our enzyme-linked immunosorbent assay (ELISA)–based measurement of elevated cGMP levels in gametocytes following incubation with an example of each subseries (Fig. 2A). […] The levels of cAMP detected in gametocytes were similar in dimethyl sulfoxide (DMSO)–, XA-, and inhibitor-treated samples, and we could detect little or no cAMP hydrolysis in mature gametocytes (fig. S5B). […]
(§2) The cyclic nucleotide hydrolytic activity of membrane-associated parasite PDE enzymes was measured by a scintillation proximity assay (SPA) ([18]) using lysates of mature P. falciparum schizonts or stage IV/V gametocytes. […] The IC50 values for the compounds were determined using threefold serial dilutions in duplicate. […] The reactions were terminated by addition of 25 μl of PDE SPA beads (PerkinElmer, RPNQ0150), and after 20 min of incubation at room temperature, scintillation was measured using a Wallac 1450 Microbeta Counter (PerkinElmer) for 30 s. […]

A further assay deals with P. falciparum Dd2-B2. As to the kind of experiment: 72-hour flow cytometry EC50 assay, Dd2-B2 parental line. In kind it is cell-based, Plasmodium falciparum. The note with it: Plasmodium falciparum, DD2, read-out: EC50 Dd2-B2 parental line. As to the method: as §1
On the technique in general: In flow cytometry, cells or beads pass a laser one at a time.

In a further assay the test system is P. falciparum 3D7. In words: P. falciparum 3D7 LDH growth inhibition assay (asexual blood stage). In kind it is cell-based, Plasmodium falciparum. As to the method: P. falciparum isolates (3D7/Dd2) were obtained from BEI Resources and were cultured using standard procedures as described elsewhere ([47]). Briefly, P. falciparum was grown in RPMI 1640 medium (10.3 g/liter) supplemented with L-glutamine (2 mM), hypoxanthine (150 μM), Hepes (25 mM), D-glucose (12 mM), sodium bicarbonate (25.7 mM), AlbuMAX II (0.5% or 5 g/liter) (pH 7.4), and 2% RBC (type O+, freshly prepared). Cultures were replenished with fresh medium and RBCs every other day. For RBC preparation, whole blood was centrifuged at 415g at room temperature for 12 min. After that, the plasma and buffy coat were removed, and packed RBCs were washed three times with 3 vol of RPMI 1640. Last, RBCs were resuspended in 1:1 vol of complete RPMI 1640 medium (containing 0.5% AlbuMAX II).
The P. falciparum 3D7 and Dd2 LDH growth inhibition assay was carried out as described elsewhere ([48]) with minor modification of the parasitological conditions (10 to 15% parasitemia with ≥80% rings). Data were normalized to percent growth inhibition with respect to […] (for 3D7, a mixture of 100 nM chloroquine and 100 nM atovaquone as 100% inhibition; for Dd2, a mixture of 200 nM DHA and 200 nM atovaquone as 100% inhibition) controls.

A further assay addresses T1, PDEβ (Plasmodium falciparum, UniProt Q8I6Z7).
T1 construct: endogenous in cells; host or cells: P. falciparum 3D7 schizonts, NP-40 membrane lysate
As to the kind of experiment: cAMP hydrolysis SPA in schizont membrane lysates. It counts as biochemical. The note with it: read-out: IC50 against PDEβ.
Description: We identified three PDE inhibitor chemical series generated by Pfizer, with structures in the public domain, which have activity against malaria parasites (see the “Chemistry strategy summary” section). These series were originally designed to inhibit human PDEs and were chosen as chemistry start points to optimize activity against malaria parasites. More than 400 new analogs were generated (full details of their properties will be reported in a separate paper, in preparation) through iterative rounds of synthesis and testing. The chemistry start points for each of the series were SAL-0010042 (5-benzyl), SAL-0010043 (5-aryl), and SAL-0010034 (2-alkyl) (see Materials and Methods and fig. S1A). S2. Analytical data for these compounds are provided in data S1. All newly synthesized compounds were tested for inhibition of native cAMP-PDE activity in mature schizont crude membrane preparations and inhibition of P. falciparum ABS growth. S3A. […] The unbound EC50 values for the compounds in the parasite growth inhibition assay were consistently calculated to be sevenfold higher than the IC50 values in the biochemical assay. Given that PDEβ is dual specific (i.e., can hydrolyze both cAMP and cGMP), we also determined IC50 values for cGMP hydrolysis. […] The IC50 values measured for cGMP hydrolysis in blood-stage schizonts were generally similar to those for cAMP hydrolysis (Table 1). […]
as §2

In a further assay the test system is malaria parasites. Set-up: method as in PMID 25951195, PMID 33262483. The note with it: cited from earlier work.
For the next assay, the system named is P. falciparum ABS. The settings on record: read-out: Median effective dose, P. falciparum ABS growth inhibition; cited from earlier work.

Like-named read-outs stand apart in the source and are kept apart here.

One may read the IC50 as the concentration at which inhibition is half-maximal.

T1 sequence (Q8I6Z7 whole entry): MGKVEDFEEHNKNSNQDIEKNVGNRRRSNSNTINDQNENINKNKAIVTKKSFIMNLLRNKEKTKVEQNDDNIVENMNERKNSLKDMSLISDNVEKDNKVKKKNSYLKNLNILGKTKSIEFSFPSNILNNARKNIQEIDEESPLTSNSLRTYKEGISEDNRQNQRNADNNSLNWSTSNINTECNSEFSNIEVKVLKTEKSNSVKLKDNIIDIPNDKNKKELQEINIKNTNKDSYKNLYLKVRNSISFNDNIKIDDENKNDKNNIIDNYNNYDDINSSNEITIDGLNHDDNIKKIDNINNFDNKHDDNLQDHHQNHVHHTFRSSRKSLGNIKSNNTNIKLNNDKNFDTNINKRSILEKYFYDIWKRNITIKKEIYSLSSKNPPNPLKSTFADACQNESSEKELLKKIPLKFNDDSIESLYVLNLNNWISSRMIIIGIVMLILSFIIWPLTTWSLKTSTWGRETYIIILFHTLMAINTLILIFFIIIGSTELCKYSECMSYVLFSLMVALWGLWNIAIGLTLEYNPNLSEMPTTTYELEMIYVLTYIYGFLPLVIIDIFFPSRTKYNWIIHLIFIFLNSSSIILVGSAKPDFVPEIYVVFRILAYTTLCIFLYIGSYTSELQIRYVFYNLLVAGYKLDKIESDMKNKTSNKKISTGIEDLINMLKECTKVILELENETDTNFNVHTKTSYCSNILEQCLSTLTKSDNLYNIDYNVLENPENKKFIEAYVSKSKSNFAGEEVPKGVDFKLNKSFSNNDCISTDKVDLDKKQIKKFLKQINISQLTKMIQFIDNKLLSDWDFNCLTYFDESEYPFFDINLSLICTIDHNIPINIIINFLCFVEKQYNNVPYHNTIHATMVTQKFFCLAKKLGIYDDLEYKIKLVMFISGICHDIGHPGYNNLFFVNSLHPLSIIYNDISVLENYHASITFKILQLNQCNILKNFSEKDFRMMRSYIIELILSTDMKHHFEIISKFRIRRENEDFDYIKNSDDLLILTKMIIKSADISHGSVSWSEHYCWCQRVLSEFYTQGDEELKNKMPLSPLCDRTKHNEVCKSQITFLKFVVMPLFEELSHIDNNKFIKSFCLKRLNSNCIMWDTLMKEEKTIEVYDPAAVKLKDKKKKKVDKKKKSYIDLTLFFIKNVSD

As for `CCc1c2nc(-c3cc(-c4cccnc4)cnc3OCC(C)C)[nH]c(=O)c2nn1CCOC` [SAL-0010419], the EC50 turned out to be 360 nM in assay [1] (DD2, read-out: EC50, line selected with SAL-0010419, Well C4); 344 nM in assay [1] (DD2, read-out: EC50, line selected with SAL-0010419, Well E11); 293 nM in assay [1] (DD2, read-out: EC50, line selected with SAL-0010419, Well F8); 61.4 nM in the assay with P. falciparum Dd2-B2. For the same molecule, the “Mean fold change in EC50” value in assay [1] (selected lines vs Dd2-B2 parental line, ±SD) is 5.4 ± 0.6 fold. In assay [1] (vs Dd2-B2), the “EC50 shift, line selected with SAL-0010419, Well C4” value is 5.9 fold. In addition, the “EC50 shift, line selected with SAL-0010419, Well E11” value in assay [1] (vs Dd2-B2) is 5.6 fold. In assay [1] (vs Dd2-B2), the “EC50 shift, line selected with SAL-0010419, Well F8” value was determined as 4.8 fold. Also, in assay [2], the IC50 was above 10000 nM.
On to `CCCc1n[nH]c2c(=O)[nH]c(-c3cc(S(=O)(=O)N4CCN(C)CC4)ccc3OCC)nc12` [des-Me sildenafil, desmethyl (des-Me) sildenafil], for which, in the assay with P. falciparum 3D7 (Plasmodium falciparum, 3D7, read-out: EC50 against ABS parasites), the EC50 was 415 nM. In addition, the “Difference in ABS EC50 vs sildenafil” value in the assay with P. falciparum 3D7 (des-Me sildenafil vs sildenafil) is given as above 60 fold. Further, at PDEβ, the IC50 was 36.7 nM.
`CN1CC(=O)N2[C@H](c3ccc4c(c3)OCO4)c3[nH]c4ccccc4c3C[C@@H]2C1=O` [tadalafil]: the “IC50 against malaria parasites” value in the assay on malaria parasites is “mid-to-high micromolar range”.
Regarding `CCCOc1ccccc1-c1nc2nn[nH]c2c(=O)[nH]1` [zaprinast], the EC50 in the assay with P. falciparum ABS was 35000 nM.

(Values after article PMC11623267, “Inhibitors of malaria parasite cyclic nucleotide phosphodiesterases block asexual blood-stage development and mosquito transmission” (Science Advances, 2024).)
